{"source": "patent US20050220861A1", "about": "“Colonic release compostion” (priority 2002, published 2005)", "key": {"[1]": {"parameters": "unit not given beside the values", "settings": "in vivo, po, 40 mg; cited from earlier work"}, "[2]": {"settings": "for drug content of the formulation released from the pellets / prednisolone sodium metasulphobenzoate retained in the excreted pellets, mean: 3rd Phase I", "protocol": "(§1) Capsules containing coated pellets of prednisolone sodium metasulphobenzoate, equivalent to 60 mg prednisolone, were administered to seven healthy, fasted volunteers. Progress of the dose through the gastrointestinal tract was followed over 24 hours by gamma-scintigraphy after the co-administration of ethylcellulose coated ^111indium labelled non-pareils. Plasma levels of prednisolone were determined at various time points up to 48 hours after administration. Excreted drug pellets were harvested over five days and residual drug levels determined.\n(§2) The trial comprised a combined gamma scintigraphic and pharmacokinetic study with excreted pellet analysis to the same design as the first Phase I study (above) following administration of the prednisolone sodium metasulphobenzoate ester at a dose of 94.2 mg, equivalent to 60 mg of prednisolone. In this second study, the thickness of the coating of the pellets was increased and the proportion of amylose was increased in the coat.\n(§3) The trial comprised a combined gamma scintigraphic and pharmacokinetic study with excreted pellet analysis to the same design as the first Phase I study (above) following administration of prednisolone sodium metasulphobenzoate ester at a dose of 94.2 mg, equivalent to 60 mg prednisolone. In this third study, administering the coated prednisolone pellets to volunteers in the fed and fasted state was examined."}, "[3]": {"settings": "human, in vivo, po", "protocol": "Four phase I studies have been completed. In the first of these, an ethyl cellulose to amylose ratio of 5:1 was used with a 10% weight gain. The second and third studies, investigated the effect of a thicker coat (20% weight gain) at a 4:1 ethylcellulose to amylose ratio. All other features of the comparison formulation were the same.\nas §1, §2, §3\nThe pellets were produced as described in Example 2.\nThis trial used a higher dose of prednisolone sodium metasulphobenzoate, equivalent to 100 mg of prednisolone."}, "[4]": {"parameters": "Cmax (prednisolone) / AUC (prednisolone): unit not given beside the values", "settings": "cited from earlier work"}, "[5]": {"settings": "McIntyre et al 1985, 20 mg, rectal"}}, "note": "Read-outs that look alike come from different tables or passages of the source."}
{"molecule": "C[C@]12C=CC(=O)C=C1CC[C@@H]1[C@@H]2[C@@H](O)C[C@@]2(C)[C@H]1CC[C@]2(O)C(=O)COC(=O)c1cccc(S(=O)(=O)[O-])c1.[Na+]", "note": "[Prednisolone metasulphobenzoate, prednisolone sodium metasulphobenzoate]", "values": [{"measurement": "AUC (prednisolone)", "setting": "[1]", "value": "2189 ± 475"}, {"measurement": "Cmax (prednisolone)", "setting": "[1]", "value": "242 ± 58"}, {"measurement": "amount of prednisolone recovered from pellets harvested from the faeces", "setting": "[2]; 1st Phase I, 60 mg oral, average of all subjects", "value": "2.5 ± 1.12", "unit": "mg"}, {"measurement": "prednisolone recovered from excreted pellets, % of the administered dose", "setting": "[2]; 1st Phase I, all cases", "value": "less than 5%"}, {"measurement": "drug excreted in the pellets, % of the administered dose", "setting": "[2]; 2nd Phase I", "value": "less than 2%"}, {"measurement": "arrival of the drug pellets at the ileo-caecal junction", "setting": "[2]; 2nd Phase I, amylose:ethylcellulose 1:4, 20% weight gain", "value": "5.9 ± 2.0", "unit": "h"}, {"measurement": "mean quantity of drug excreted in the pellets, determined as prednisolone sodium metasulphobenzoate", "setting": "[2]; 2nd Phase I, dose 94.2 mg ester", "value": 1.7, "unit": "mg"}, {"measurement": "drug content of the formulation released from the pellets", "setting": "[2]; fasted", "value": "over 90%"}, {"measurement": "prednisolone sodium metasulphobenzoate retained in the excreted pellets, mean", "setting": "[2]; fasted, dose 94.2 mg ester", "value": "6.1 ± 1.0", "unit": "mg"}, {"measurement": "drug content of the formulation released from the pellets", "setting": "[2]; fed", "value": "over 90%"}, {"measurement": "prednisolone sodium metasulphobenzoate retained in the excreted pellets, mean", "setting": "[2]; fed, dose 94.2 mg ester", "value": "3.1 ± 1.2", "unit": "mg"}, {"measurement": "AUC (prednisolone)", "setting": "[3]; 60 mg", "value": "1441 ± 541"}, {"measurement": "Cmax (prednisolone)", "setting": "[3]; 60 mg", "value": "168 ± 56"}, {"measurement": "AUC", "setting": "[3]; 100 mg", "value": 152, "unit": "ng·mL·h"}, {"measurement": "Cmax", "setting": "[3]; 100 mg", "value": 18.9, "unit": "ng/mL"}, {"measurement": "AUC", "setting": "[4]; in vivo, 60 mg", "value": "632 ± 509", "unit": "ng·mL·h"}, {"measurement": "AUC (prednisolone)", "setting": "[4]; in vivo, 60 mg", "value": "632 ± 509"}, {"measurement": "Cmax", "setting": "[4]; in vivo, 60 mg", "value": "147 ± 79", "unit": "ng/mL"}, {"measurement": "Cmax (prednisolone)", "setting": "[4]; in vivo, 60 mg", "value": "147 ± 79"}]}
{"molecule": "C[C@]12C=CC(=O)C=C1CC[C@@H]1[C@@H]2[C@@H](O)C[C@@]2(C)[C@H]1CC[C@]2(O)C(=O)COP(=O)(O)O", "note": "[Prednisolone-21-phosphate]", "values": [{"measurement": "AUC (prednisolone)", "setting": "[4]; [5]", "value": "599 ± 310"}, {"measurement": "Cmax (prednisolone)", "setting": "[4]; [5]", "value": "148 ± 75"}]}
